Calls of active or inactive are those of the source.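 The calls were made as follows: active = human M5 calcium response above 60% of the acetylcholine maximum, marking a potentiator (some results past the limit were not filed as active); inactive = the rest.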
The compounds below were run against Muscarinic acetylcholine receptor M5 (Homo sapiens) (UniProt P08912) (assay: M5 positive allosteric modulator potency, confirmation, cell-based, CHO-K1 hM5, Fluo-4 calcium flux, concentration-response (AID 743102)). Conditions: ACh EC20 PAM.
Sequence of Muscarinic acetylcholine receptor M5 (Homo sapiens) (P08912 whole entry, looked up): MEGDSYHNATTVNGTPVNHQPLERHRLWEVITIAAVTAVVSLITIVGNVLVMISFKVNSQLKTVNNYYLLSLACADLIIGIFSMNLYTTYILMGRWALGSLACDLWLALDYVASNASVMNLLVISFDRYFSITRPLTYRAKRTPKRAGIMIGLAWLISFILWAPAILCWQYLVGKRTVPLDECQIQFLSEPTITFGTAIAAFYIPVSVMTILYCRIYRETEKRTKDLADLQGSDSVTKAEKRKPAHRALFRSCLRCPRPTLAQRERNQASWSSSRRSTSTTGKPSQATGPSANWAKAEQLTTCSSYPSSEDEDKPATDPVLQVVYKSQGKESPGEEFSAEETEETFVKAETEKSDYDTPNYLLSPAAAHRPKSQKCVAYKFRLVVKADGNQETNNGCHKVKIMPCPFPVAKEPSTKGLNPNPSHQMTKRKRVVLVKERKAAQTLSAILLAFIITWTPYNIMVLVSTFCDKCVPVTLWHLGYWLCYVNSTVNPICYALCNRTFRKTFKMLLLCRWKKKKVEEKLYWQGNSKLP

CCN(C(=O)C1CCN(S(=O)(=O)c2ccc3c(c2)CCC3)CC1)[C@H](C)c1ccccc1 was tested. Which EC50 did it give?
Its EC50 is 0.76 µM.

How did the EC50 turn out when CCN(Cc1ccccc1)C(=O)C1CCN(S(=O)(=O)c2ccc(OC)cc2)CC1 was run?
Its EC50 is 3.57 µM.

Which EC50 does the source give for CCN(C(=O)C1CCN(S(=O)(=O)c2ccc3[nH]ncc3c2)CC1)[C@H](C)c1ccccc1C(F)(F)F here?
Its EC50 is 4.06 µM.

Which EC50 does the source give for CCN(Cc1ccccc1)C(=O)C1CCN(S(=O)(=O)c2ccccc2)CC1 here?
The EC50 was 5.37 µM.

How did the EC50 turn out when CCN(Cc1ccccc1)C(=O)C1CCN(S(=O)(=O)c2ccc(C(C)=O)cc2)CC1 was run?
Its EC50 is 6.55 µM.

How did the EC50 turn out when CCN(Cc1ccccc1F)C(=O)C1CCN(S(=O)(=O)c2ccc3cn[nH]c3c2)CC1 was run?
The EC50 was 2.08 µM.

With CCN(Cc1cccc(C)c1)C(=O)C1CCN(S(=O)(=O)c2ccc3cn[nH]c3c2)CC1 as the compound, how does the EC50 read?
Its EC50 is 1 µM.

CCN(Cc1ccccc1)C(=O)C1CCN(S(=O)(=O)c2cccc(OC(F)F)c2)CC1 was tested. Which EC50 did it give?
The EC50 was 3.98 µM.

For CCN(C(=O)C1CCN(S(=O)(=O)c2cc(F)c(F)c(F)c2)CC1)[C@H](C)c1ccccc1, which EC50 is on record?
The EC50 was 2.54 µM.

How did the EC50 turn out when CCN(C(=O)C1CCN(S(=O)(=O)c2ccc3cn[nH]c3c2)CC1)[C@H](C)c1ccccc1 was run?
Its EC50 is 0.83 µM.

With CCN(Cc1ccccc1)C(=O)C1CCN(S(=O)(=O)c2ccc3nsnc3c2)CC1 as the compound, how does the EC50 read?
Its EC50 is 5.23 µM.

Which EC50 does the source give for CCN(C(=O)C1CCN(S(=O)(=O)c2ccc3c(c2)CCO3)CC1)[C@H](C)c1ccccc1 here?
Its EC50 is 0.98 µM.

[2H]C([2H])(C)N(C(=O)C1CCN(S(=O)(=O)c2ccc3cn[nH]c3c2)CC1)[C@H](C)c1ccccc1 was tested. Which EC50 did it give?
Its EC50 is 0.53 µM.

For CCN(Cc1cccc(F)c1)C(=O)C1CCN(S(=O)(=O)c2ccc3cn[nH]c3c2)CC1, which EC50 is on record?
The EC50 was 1.27 µM.

CCN(Cc1ccccc1)C(=O)C1CCN(S(=O)(=O)c2ccc(C)cc2)CC1 was tested. Which EC50 did it give?
Its EC50 is 5.45 µM.

Which EC50 does the source give for CCN(Cc1ccccc1C(F)(F)F)C(=O)C1CCN(S(=O)(=O)c2ccc3cn[nH]c3c2)CC1 here?
The EC50 was 0.42 µM.

For CCN(Cc1ccccc1OC(F)(F)F)C(=O)C1CCN(S(=O)(=O)c2ccc3cn[nH]c3c2)CC1, which EC50 is on record?
Its EC50 is 3.43 µM.

With CCN(Cc1ccccc1)C(=O)C1CCN(S(=O)(=O)c2ccc(Br)cc2)CC1 as the compound, how does the EC50 read?
Its EC50 is 3.92 µM.

With CCN(Cc1cccc(OC)c1)C(=O)C1CCN(S(=O)(=O)c2ccc3cn[nH]c3c2)CC1 as the compound, how does the EC50 read?
The EC50 was 2.69 µM.

CCCc1ccc(S(=O)(=O)N2CCC(C(=O)N(CC)Cc3ccccc3)CC2)cc1 was tested. Which EC50 did it give?
The EC50 was 3.23 µM.

How did the EC50 turn out when CCN(Cc1ccccc1)C(=O)C1CCN(S(=O)(=O)c2cccc(OC)c2)CC1 was run?
Its EC50 is 3.25 µM.

How did the EC50 turn out when CCN(Cc1ccccc1)C(=O)C1CCN(S(=O)(=O)c2ccc(OC(F)(F)F)cc2)CC1 was run?
The EC50 was 6.1 µM.

CCN(Cc1ccccc1C(F)(F)F)C(=O)C1(F)CCN(S(=O)(=O)c2ccc3[nH]ncc3c2)CC1 was tested. Which EC50 did it give?
Its EC50 is 0.43 µM.

How did the EC50 turn out when CCN(Cc1ccccc1)C(=O)C1CCN(S(=O)(=O)c2ccc(OC(F)F)cc2)CC1 was run?
Its EC50 is 5.05 µM.

How did the EC50 turn out when CCN(C(=O)C1CCN(S(=O)(=O)c2ccc(OC)cc2)CC1)[C@H](C)c1ccccc1 was run?
Its EC50 is 1.08 µM.

Which EC50 does the source give for CCN(Cc1ccccc1)C(=O)C1CCN(S(=O)(=O)c2ccc3c(c2)OCCO3)CC1 here?
Its EC50 is 12.3 µM.

For CCN(C(=O)C1CCN(S(=O)(=O)c2ccc(-n3cccn3)cc2)CC1)[C@H](C)c1ccccc1, which EC50 is on record?
Its EC50 is 0.7 µM.

For CCN(Cc1ccccc1)C(=O)C1CCN(S(=O)(=O)c2ccc3[nH]ncc3c2)CC1, which EC50 is on record?
The EC50 was 1.66 µM.

With CCN(Cc1ccccc1C(F)(F)F)C(=O)C1CCN(S(=O)(=O)c2ccc(-n3cccn3)cc2)CC1 as the compound, how does the EC50 read?
The EC50 was 1.26 µM.

For CCN(Cc1ccccc1)C(=O)C1CCN(S(=O)(=O)c2cccc(Cl)c2)CC1, which EC50 is on record?
Its EC50 is 4.81 µM.

With CCN(Cc1ccccc1C)C(=O)C1CCN(S(=O)(=O)c2ccc3cn[nH]c3c2)CC1 as the compound, how does the EC50 read?
Its EC50 is 0.94 µM.

Which EC50 does the source give for CCN(Cc1ccccc1Cl)C(=O)C1CCN(S(=O)(=O)c2ccc3[nH]ncc3c2)CC1 here?
Its EC50 is 0.34 µM.

How did the EC50 turn out when CCN(Cc1ccccc1)C(=O)C1CCN(S(=O)(=O)c2ccc3cn[nH]c3c2)CC1 was run?
Its EC50 is 2.09 µM.

How did the EC50 turn out when C=CCN(Cc1ccccc1C(F)(F)F)C(=O)C1CCN(S(=O)(=O)c2ccc3[nH]ncc3c2)CC1 was run?
The EC50 was 1.86 µM.

Which EC50 does the source give for CCN(Cc1ccccc1Cl)C(=O)C1CCN(S(=O)(=O)c2ccc3cn[nH]c3c2)CC1 here?
The EC50 was 0.43 µM.

CCN(Cc1ccccc1C#N)C(=O)C1CCN(S(=O)(=O)c2ccc3cn[nH]c3c2)CC1 was tested. Which EC50 did it give?
Its EC50 is 7.02 µM.

With CCN(Cc1cccc(Cl)c1)C(=O)C1CCN(S(=O)(=O)c2ccc3cn[nH]c3c2)CC1 as the compound, how does the EC50 read?
Its EC50 is 1.67 µM.

Which EC50 does the source give for CCN(Cc1ccccc1OC)C(=O)C1CCN(S(=O)(=O)c2ccc3cn[nH]c3c2)CC1 here?
The EC50 was 7.09 µM.

CCN(Cc1ccccc1)C(=O)C1CCN(S(=O)(=O)c2ccc(C)s2)CC1 was tested. Which EC50 did it give?
The EC50 was 7.48 µM.

How did the EC50 turn out when CCN(Cc1ccccc1C(F)(F)F)C(=O)C1CCN(S(=O)(=O)c2ccc3[nH]ncc3c2)CC1 was run?
Its EC50 is 0.23 µM.

How did the EC50 turn out when CCN(C(=O)C1CCN(S(=O)(=O)c2ccc3occc3c2)CC1)[C@H](C)c1ccccc1 was run?
Its EC50 is 0.92 µM.

Which EC50 does the source give for O=C(C1CCN(S(=O)(=O)c2ccc3[nH]ncc3c2)CC1)N(CCF)Cc1ccccc1C(F)(F)F here?
Its EC50 is 1.32 µM.

Which EC50 does the source give for CCN(C(=O)C1CCN(S(=O)(=O)c2ccc3[nH]ncc3c2)CC1)[C@H](C)c1ccccc1 here?
The EC50 was 0.77 µM.

Which EC50 does the source give for CCc1ccc(S(=O)(=O)N2CCC(C(=O)N(CC)Cc3ccccc3)CC2)cc1 here?
The EC50 was 3.75 µM.

With CCCN(Cc1ccccc1C(F)(F)F)C(=O)C1CCN(S(=O)(=O)c2ccc3[nH]ncc3c2)CC1 as the compound, how does the EC50 read?
The EC50 was 0.16 µM.

Which EC50 does the source give for CCN(Cc1ccccc1)C(=O)C1CCN(S(=O)(=O)c2ccc3occc3c2)CC1 here?
Its EC50 is 1.4 µM.

Same assay, conditions: ACh EC20 PAM, at 30 µM (top of the series)

CCN(Cc1ccccc1C(F)(F)F)C(=O)C1CN(S(=O)(=O)c2ccc3[nH]ncc3c2)C1 was tested. Which “% ACh max response” value did it give?
The value was “inactive”.

With CCN(Cc1ccccc1)C(=O)[C@@H]1CCCN(S(=O)(=O)c2ccc(OC)cc2)C1 as the compound, how does the “% ACh max response” value read?
The value was “inactive”.

How did the “% ACh max response” value turn out when CCN(C(=O)Cc1ccccc1)C1CCN(S(=O)(=O)c2ccc3c(c2)OCCO3)CC1 was run?
Its value is “inactive”.

With O=C(C1CCN(S(=O)(=O)c2ccc3[nH]ncc3c2)CC1)N(Cc1ccccc1C(F)(F)F)C1CC1 as the compound, how does the “% ACh max response” value read?
Its value is “inactive”.

How did the “% ACh max response” value turn out when CCN(C(=O)C1CCN(S(=O)(=O)c2ccc3occc3c2)CC1)[C@H](C)c1ccccc1C(F)(F)F was run?
Its value is “inactive”.

Which “% ACh max response” value does the source give for CCN(C(=O)C1CCN(S(=O)(=O)c2ccc(OC)cc2)CC1)[C@@H](C)c1ccccc1 here?
Its value is “inactive”.

Which “% ACh max response” value does the source give for COc1ccc(S(=O)(=O)N2CCC3(CCN(Cc4ccccc4)C3=O)CC2)cc1 here?
The value was “inactive”.

Which “% ACh max response” value does the source give for COc1ccc(S(=O)(=O)N2CCC(C(=O)NCc3ccccc3)CC2)cc1 here?
The value was “inactive”.

How did the “% ACh max response” value turn out when O=C(C1CCN(S(=O)(=O)c2ccc3c(c2)OCCO3)CC1)N1CCc2ccccc2C1 was run?
Its value is “inactive”.

O=C(NCc1ccccc1)C1CCN(S(=O)(=O)c2ccc3c(c2)OCCO3)CC1 was tested. Which “% ACh max response” value did it give?
The value was “inactive”.

Which “% ACh max response” value does the source give for O=C(C1CCN(S(=O)(=O)c2ccc3cn[nH]c3c2)CC1)N(Cc1ccccc1C(F)(F)F)C1CC1 here?
Its value is “inactive”.

CCN(Cc1ccccc1C(F)(F)F)C(=O)C1C2CN(S(=O)(=O)c3ccc4[nH]ncc4c3)CC21 (centres undefined) was tested. Which “% ACh max response” value did it give?
Its value is “inactive”.

Which “% ACh max response” value does the source give for CCN(Cc1ccccc1)C(=O)C1CCN(S(=O)(=O)C2CC2)CC1 here?
The value was “inactive”.

Which “% ACh max response” value does the source give for O=C1N(Cc2ccccc2)CCC12CCN(S(=O)(=O)c1ccc3c(c1)OCCO3)CC2 here?
The value was “inactive”.

CCN(Cc1ccccc1)C(=O)[C@H]1CCCN(S(=O)(=O)c2ccc(OC)cc2)C1 was tested. Which “% ACh max response” value did it give?
The value was “inactive”.

How did the “% ACh max response” value turn out when CN(C)C(=O)C1(Cc2ccccc2)CCN(S(=O)(=O)c2ccc3occc3c2)CC1 was run?
The value was “inactive”.

How did the “% ACh max response” value turn out when C[C@@H](NC(=O)C1CCN(S(=O)(=O)c2ccc3[nH]ncc3c2)CC1)c1ccccc1 was run?
The value was “inactive”.

With CCN(C(=O)Cc1ccccc1)C1CCN(S(=O)(=O)c2ccc(OC)cc2)CC1 as the compound, how does the “% ACh max response” value read?
Its value is “inactive”.

For CCN(Cc1ccccc1)C(=O)C1CCN(S(C)(=O)=O)CC1, which “% ACh max response” value is on record?
The value was “inactive”.

Same assay, conditions: ACh EC20 PAM, active compounds read high

Which “% ACh max” value does the source give for CC(C)N(Cc1ccccc1C(F)(F)F)C(=O)C1CCN(S(=O)(=O)c2ccc3[nH]ncc3c2)CC1 here?
The value was “inactive”.

Which “% ACh max” value does the source give for CCN(C(=O)C1CCN(S(=O)(=O)c2ccc3cn[nH]c3c2)CC1)C(C)c1ccccn1 (centres undefined) here?
Its value is “inactive”.

How did the “% ACh max” value turn out when CCN(Cc1ccccc1)C(=O)C1CCN(S(=O)(=O)c2ccc3ncccc3c2)CC1 was run?
The value was “inactive”.

How did the “% ACh max” value turn out when CCN(Cc1ccccc1)C(=O)C1CCN(S(=O)(=O)c2ccc(C(F)(F)F)cc2)CC1 was run?
The value was “inactive”.

CCN(Cc1ccccc1)C(=O)C1CCN(S(=O)(=O)c2cccc(C(F)(F)F)c2)CC1 was tested. Which “% ACh max” value did it give?
The value was “inactive”.

For CCN(Cc1ccccc1)C(=O)C1CCN(S(=O)(=O)c2ccc(N3CCOCC3)nc2)CC1, which “% ACh max” value is on record?
The value was “inactive”.

CCN(Cc1ccccc1)C(=O)C1CCN(S(=O)(=O)c2cccc3c2OCCO3)CC1 was tested. Which “% ACh max” value did it give?
The value was “inactive”.

CCN(Cc1cccc(C(F)(F)F)c1)C(=O)C1CCN(S(=O)(=O)c2ccc3cn[nH]c3c2)CC1 was tested. Which “% ACh max” value did it give?
The value was “inactive”.

Which “% ACh max” value does the source give for CCN(Cc1ccccn1)C(=O)C1CCN(S(=O)(=O)c2ccc3cn[nH]c3c2)CC1 here?
Its value is “inactive”.

With O=C(C1CCN(S(=O)(=O)c2ccc3[nH]ncc3c2)CC1)N(CCO)Cc1ccccc1C(F)(F)F as the compound, how does the “% ACh max” value read?
Its value is “inactive”.

For CCN(Cc1cccc(C#N)c1)C(=O)C1CCN(S(=O)(=O)c2ccc3cn[nH]c3c2)CC1, which “% ACh max” value is on record?
Its value is “inactive”.

Which “% ACh max” value does the source give for CCN(Cc1ccccc1)C(=O)C1CCN(S(=O)(=O)c2ccc(OC)c(OC)c2)CC1 here?
The value was “inactive”.

For CCN(Cc1ccc(OC)cc1)C(=O)C1CCN(S(=O)(=O)c2ccc3cn[nH]c3c2)CC1, which “% ACh max” value is on record?
Its value is “inactive”.

How did the “% ACh max” value turn out when COc1ccc(S(=O)(=O)N2CCC(C(=O)N(C)Cc3ccccc3)CC2)cc1 was run?
Its value is “inactive”.

— PubChem BioAssay AID743102 (Vanderbilt Specialized Chemistry Center, 2013)
